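In this assay, cells in 96-well plates receive the compound at five concentrations for 48 hours. Endpoints are linearly interpolated between the surrounding concentrations. GI50 is the concentration that inhibits growth by half. Definition used: TGI = concentration required for complete inhibition of growth.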
Assays:
Assay in all cases: NCI tumour cell line growth inhibition, 48 h
[1] = tested on: HL-60(TB) leukemia
[2] = tested on: LOX IMVI melanoma
[3] = tested on: HCT-116 colon
[4] = tested on: NCI-H522 lung
[5] = tested on: T-47D breast
[6] = tested on: NCI/ADR-RES ovarian
[7] = tested on: SNB-75 CNS
[8] = tested on: SK-MEL-5 melanoma
[9] = tested on: HCT-15 colon
[10] = tested on: 786-0 renal
[11] = tested on: NCI-H226 lung
[12] = tested on: SK-MEL-28 melanoma
[13] = tested on: NCI-H460 lung
[14] = tested on: M14 melanoma
[15] = tested on: RXF 393 renal
[16] = tested on: HOP-62 NSCLC
[17] = tested on: TK-10 renal
[18] = tested on: MOLT-4 leukemia
[19] = tested on: A549 NSCLC
[20] = tested on: ACHN renal
[21] = tested on: HT29 colon
[22] = tested on: OVCAR-4 ovarian
[23] = tested on: MDA-MB-231 breast
[24] = tested on: SK-OV-3 ovarian
[25] = tested on: OVCAR-8 ovarian
[26] = tested on: PC-3 prostate
[27] = tested on: CCRF-CEM leukemia
[28] = tested on: IGROV1 ovarian
[29] = tested on: SNB-19 CNS
[30] = tested on: HOP-92 NSCLC
[31] = tested on: SW-620 colon
[32] = tested on: CAKI-1 renal
[33] = tested on: SF-295 CNS
[34] = tested on: UO-31 renal
[35] = tested on: OVCAR-5 ovarian
[36] = tested on: MCF7 breast
[37] = tested on: EKVX NSCLC
[38] = tested on: U251 CNS
[39] = tested on: K-562 leukemia
[40] = tested on: MDA-MB-435
[41] = tested on: MALME-3M melanoma
[42] = tested on: RPMI-8226 leukemia
[43] = tested on: UACC-62 melanoma
[44] = tested on: SF-268 CNS
[45] = tested on: HS 578T breast
[46] = tested on: DU-145 prostate
[47] = tested on: NCI-H23 lung
[48] = tested on: SR leukemia
[49] = tested on: SN12C renal
[50] = tested on: SK-MEL-2 melanoma
[51] = tested on: OVCAR-3 ovarian
[52] = tested on: A498 renal
[53] = tested on: COLO 205 colon
[54] = tested on: UACC-257 melanoma
[55] = tested on: HCC-2998 colon
[56] = tested on: BT-549 breast
[57] = tested on: SF-539 CNS
[58] = tested on: KM12 colon

## CN1CCN(c2ccc(NC(=O)c3cncnc3Nc3ccc(OCc4cccc(F)c4)c(Cl)c3)cc2)CC1
[1]
  GI50: 1.3 µM
  TGI: 3.44 µM
[2]
  GI50: 0.849 µM
  TGI: 1.61 µM
[3]
  GI50: 0.966 µM
  TGI: 2.12 µM
[4]
  GI50: 1.14 µM
  TGI: 3.28 µM
[5]
  GI50: 3.63 µM
  TGI: > 50 µM
[6]
  GI50: 5.27 µM
  TGI: > 50 µM
[7]
  GI50: 5.77 µM
  TGI: 18.8 µM
[8]
  GI50: 1.55 µM
  TGI: 5.2 µM
[9]
  GI50: 0.889 µM
  TGI: 1.91 µM
[10]
  GI50: 0.992 µM
  TGI: 2.03 µM
[11]
  GI50: 40.9 µM
  TGI: > 50 µM
[12]
  GI50: 0.849 µM
  TGI: 1.56 µM
[13]
  GI50: 1.14 µM
  TGI: 2.47 µM
[14]
  GI50: 0.895 µM
  TGI: 1.71 µM
[15]
  GI50: 0.956 µM
  TGI: 1.9 µM
[16]
  GI50: 2.53 µM
  TGI: 16.1 µM
[17]
  GI50: 22.4 µM
  TGI: > 50 µM
[18]
  GI50: 0.907 µM
  TGI: 2.28 µM
[19]
  GI50: 1.51 µM
  TGI: 5.05 µM
[20]
  GI50: 1.34 µM
  TGI: 3.74 µM
[21]
  GI50: 1.1 µM
  TGI: 2.65 µM
[22]
  GI50: 4 µM
  TGI: > 50 µM
[23]
  GI50: 0.971 µM
  TGI: 1.99 µM
[24]
  GI50: 10 µM
  TGI: > 50 µM
[25]
  GI50: 7.84 µM
  TGI: > 50 µM
[26]
  GI50: 1.78 µM
  TGI: > 50 µM
[27]
  GI50: 1.27 µM
  TGI: 4.23 µM
[28]
  GI50: 1.78 µM
  TGI: > 50 µM
[29]
  GI50: 2.81 µM
  TGI: 18.7 µM
[30]
  GI50: 1.95 µM
  TGI: 18.1 µM
[31]
  GI50: 0.932 µM
  TGI: 1.88 µM
[32]
  GI50: 1.48 µM
  TGI: 6.01 µM
[33]
  GI50: 6.51 µM
  TGI: 16.5 µM
[34]
  GI50: 0.893 µM
  TGI: 1.7 µM
[35]
  GI50: 1.6 µM
  TGI: 7.29 µM
[36]
  GI50: 0.993 µM
  TGI: 2.4 µM
[37]
  GI50: 10.9 µM
  TGI: > 50 µM
[38]
  GI50: 1.07 µM
  TGI: 2.52 µM
[39]
  GI50: 0.799 µM
  TGI: 1.83 µM
[40]
  GI50: 0.972 µM
  TGI: 1.87 µM
[41]
  GI50: 0.85 µM
  TGI: 1.74 µM
[42]
  GI50: 1.26 µM
  TGI: 3.32 µM
[43]
  GI50: 0.914 µM
  TGI: 1.74 µM
[44]
  GI50: 4.91 µM
  TGI: 15.9 µM
[45]
  GI50: 1.99 µM
  TGI: 11.6 µM
[46]
  GI50: 4.9 µM
  TGI: > 50 µM
[47]
  GI50: 4.01 µM
  TGI: > 50 µM
[48]
  GI50: 0.939 µM
  TGI: 2.46 µM
[49]
  GI50: 1.13 µM
  TGI: 2.75 µM
[50]
  GI50: 3 µM
  TGI: 12.2 µM
[51]
  GI50: 3.58 µM
  TGI: > 50 µM
[52]
  GI50: 1.55 µM
  TGI: 24.7 µM
[53]
  GI50: 0.799 µM
  TGI: 1.54 µM
[54]
  GI50: 1.07 µM
  TGI: 2.54 µM
[55]
  GI50: 1.13 µM
  TGI: 2.7 µM
[56]
  GI50: > 50 µM
  TGI: > 50 µM
[57]
  GI50: 0.847 µM
  TGI: 1.6 µM
[58]
  GI50: 2.21 µM
  TGI: > 50 µM

— PubChem BioAssay (NCI)
